Laboratory results as given in patent US20020160988A1 (priority 2001, published 2002).
Like-named read-outs stand apart in the source and are kept apart here.

Key:
[1] = molecular target: T1, recombinant human acetylcholineesterase (rHuAChE) (Homo sapiens, UniProt P22303); conditions: for t½(ks): human, recombinant enzyme
in vivo = conditions: mouse
[2] = molecular target: T1, recombinant human acetylcholineesterase (rHuAChE); experiment: biochemical
mice [3] = conditions: mouse, in vivo
[4] = tested on: carrageenan-induced rat paw edema; conditions: in vivo
CAR-induced brain edema = tested on: CAR-induced brain edema; set-up: species or system rats; conditions: rat, in vivo
[5] = molecular target: T2, fetal bovine serum-AChE (FBS-AChE) (Bos taurus, UniProt P23795); conditions: for t½(ks): bovine, serum
T2 sequence (P23795 31-613): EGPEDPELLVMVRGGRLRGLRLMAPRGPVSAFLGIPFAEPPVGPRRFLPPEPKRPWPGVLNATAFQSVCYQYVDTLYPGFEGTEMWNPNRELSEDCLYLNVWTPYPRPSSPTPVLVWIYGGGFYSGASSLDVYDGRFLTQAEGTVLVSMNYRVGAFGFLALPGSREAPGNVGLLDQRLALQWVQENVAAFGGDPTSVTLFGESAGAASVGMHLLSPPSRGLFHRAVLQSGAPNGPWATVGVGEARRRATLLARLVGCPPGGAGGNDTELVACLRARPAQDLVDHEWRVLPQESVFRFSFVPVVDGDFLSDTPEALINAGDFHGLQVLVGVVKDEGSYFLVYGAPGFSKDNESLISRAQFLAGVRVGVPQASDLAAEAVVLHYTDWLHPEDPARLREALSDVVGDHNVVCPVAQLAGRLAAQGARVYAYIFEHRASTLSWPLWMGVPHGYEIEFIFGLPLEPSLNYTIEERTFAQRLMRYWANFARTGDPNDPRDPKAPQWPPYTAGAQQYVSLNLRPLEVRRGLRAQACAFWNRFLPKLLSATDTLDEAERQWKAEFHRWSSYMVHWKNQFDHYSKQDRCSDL

[6] = molecular target: T3, human plasma butyrylcholinesterase (HuBChE) (Homo sapiens, UniProt P06276); conditions: for t½(ks): human, plasma
T3 sequence (P06276 29-602): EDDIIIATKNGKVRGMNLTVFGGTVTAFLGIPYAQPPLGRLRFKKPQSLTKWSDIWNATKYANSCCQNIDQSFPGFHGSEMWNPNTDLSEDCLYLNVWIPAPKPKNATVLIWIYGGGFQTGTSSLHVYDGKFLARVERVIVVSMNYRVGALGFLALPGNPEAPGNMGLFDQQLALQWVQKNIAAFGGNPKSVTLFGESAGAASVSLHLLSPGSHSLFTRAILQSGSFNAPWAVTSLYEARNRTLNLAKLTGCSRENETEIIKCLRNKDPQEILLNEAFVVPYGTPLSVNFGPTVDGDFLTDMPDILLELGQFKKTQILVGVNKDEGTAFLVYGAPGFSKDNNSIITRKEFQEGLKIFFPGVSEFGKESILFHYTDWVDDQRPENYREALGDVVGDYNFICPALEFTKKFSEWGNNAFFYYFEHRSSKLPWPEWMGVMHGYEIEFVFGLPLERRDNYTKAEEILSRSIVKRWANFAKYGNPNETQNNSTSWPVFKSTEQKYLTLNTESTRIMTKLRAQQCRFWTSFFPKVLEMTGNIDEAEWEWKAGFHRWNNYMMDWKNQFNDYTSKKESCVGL

physchem = conditions: pH 7.4
[7] = molecular target: T2, fetal bovine serum-AChE (FBS-AChE); experiment: biochemical
[8] = molecular target: T3, human plasma butyrylcholinesterase (HuBChE); experiment: biochemical
[9] = molecular target: COX I (bovine seminal vesicles) (Bos taurus, UniProt O62664); experiment: biochemical; conditions: read-out: % Inhibition COX I
Sequence of COX I (bovine seminal vesicles) (O62664 25-600): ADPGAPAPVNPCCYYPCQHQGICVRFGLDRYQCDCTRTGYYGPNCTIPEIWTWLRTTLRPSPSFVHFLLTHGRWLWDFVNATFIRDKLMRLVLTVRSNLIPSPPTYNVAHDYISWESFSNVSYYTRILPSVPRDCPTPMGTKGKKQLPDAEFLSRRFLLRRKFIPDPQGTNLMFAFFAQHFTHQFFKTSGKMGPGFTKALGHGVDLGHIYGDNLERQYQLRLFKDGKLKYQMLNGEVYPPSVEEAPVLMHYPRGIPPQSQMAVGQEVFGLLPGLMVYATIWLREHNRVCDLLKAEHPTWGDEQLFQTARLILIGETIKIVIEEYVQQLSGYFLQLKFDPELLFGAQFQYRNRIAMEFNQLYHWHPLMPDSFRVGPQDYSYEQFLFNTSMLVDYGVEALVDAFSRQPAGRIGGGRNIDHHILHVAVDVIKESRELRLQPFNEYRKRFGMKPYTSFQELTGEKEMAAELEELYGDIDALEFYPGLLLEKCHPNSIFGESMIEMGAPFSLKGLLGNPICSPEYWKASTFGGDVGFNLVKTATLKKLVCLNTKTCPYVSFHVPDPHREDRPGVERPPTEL

COX II (sheep placenta) = COX II (sheep placenta) (Ovis aries, UniProt P79208); experiment: biochemical; conditions: read-out: % Inhibition COX II
Sequence of COX II (sheep placenta) (P79208 17-603): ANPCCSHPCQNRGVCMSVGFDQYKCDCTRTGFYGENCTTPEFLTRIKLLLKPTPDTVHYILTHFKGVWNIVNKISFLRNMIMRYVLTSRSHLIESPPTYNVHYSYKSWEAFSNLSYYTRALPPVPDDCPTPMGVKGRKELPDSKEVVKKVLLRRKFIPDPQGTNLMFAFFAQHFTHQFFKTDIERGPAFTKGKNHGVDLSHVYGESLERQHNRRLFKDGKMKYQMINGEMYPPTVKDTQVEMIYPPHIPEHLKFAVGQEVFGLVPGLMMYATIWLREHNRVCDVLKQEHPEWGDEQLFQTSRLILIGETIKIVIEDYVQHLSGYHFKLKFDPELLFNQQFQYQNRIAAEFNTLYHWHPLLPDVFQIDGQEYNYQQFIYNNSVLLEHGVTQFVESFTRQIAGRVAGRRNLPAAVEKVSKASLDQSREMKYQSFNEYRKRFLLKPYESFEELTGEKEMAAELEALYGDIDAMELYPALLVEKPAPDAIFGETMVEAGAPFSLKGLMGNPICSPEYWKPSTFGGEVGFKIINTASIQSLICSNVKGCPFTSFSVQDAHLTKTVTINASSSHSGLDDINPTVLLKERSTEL

whole blood ChE = tested on: whole blood ChE; set-up: species or system mice; conditions: mouse, in vivo, 0.13 mg/kg
mice [10] = conditions: mouse, in vivo; remark: listed apart in the source

T1 sequence (P22303 32-614): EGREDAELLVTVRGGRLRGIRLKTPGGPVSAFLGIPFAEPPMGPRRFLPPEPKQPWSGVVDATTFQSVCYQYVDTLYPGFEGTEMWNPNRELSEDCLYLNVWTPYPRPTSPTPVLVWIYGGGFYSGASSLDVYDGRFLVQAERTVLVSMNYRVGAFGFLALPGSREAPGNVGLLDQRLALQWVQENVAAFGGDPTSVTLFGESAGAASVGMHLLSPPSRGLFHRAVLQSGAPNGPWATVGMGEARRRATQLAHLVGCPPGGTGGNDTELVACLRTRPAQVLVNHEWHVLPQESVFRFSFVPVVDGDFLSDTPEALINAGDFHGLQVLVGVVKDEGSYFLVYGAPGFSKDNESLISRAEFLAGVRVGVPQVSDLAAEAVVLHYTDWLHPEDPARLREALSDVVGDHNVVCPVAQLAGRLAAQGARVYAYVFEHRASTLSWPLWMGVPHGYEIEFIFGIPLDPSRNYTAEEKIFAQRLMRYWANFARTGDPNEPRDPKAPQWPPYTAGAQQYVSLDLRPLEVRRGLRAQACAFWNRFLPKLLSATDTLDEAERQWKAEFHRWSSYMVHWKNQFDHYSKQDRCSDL

With “3-Dimethylcarbamoyl-1-{7-[2-(4-isobutyl-phenyl)-propionylamino]-heptyl}-pyridinium bromide [IBU-Am-PH]” the Ki [1] was 0.047 µM, the “K′” value [1] was 0.13 min⁻¹ and the “ki (bimolecular rate constant)” value [1] was 2.8 × 10^6 M^−1m^−1. The “ks × 10^3” value [1] was 27 minutes^−1.
Work on `CC(=O)Oc1ccccc1C(=O)O` [ASPIRIN, aspirin] yielded an LD50 (in vivo; ip) of over 100 mg/kg.
For `COC(=O)C1=CCCN(C)C1` [Arecoline, arecoline], the “mode of AChE inhibition” value [1] was “reversible inhibition of AChE” and the IC50 [2] was over 100 µM.
For `CCN(C)C(=O)Oc1cccc([C@H](C)N(C)C)c1` [EXELON], the “Therapeutic Index (TI = LD50/ED50)” value (mice [3]) was 12.5.
In the case of `CC(C)Cc1ccc(C(C)C(=O)O)cc1` (stereo not shown) [IBU, ibuprofen], the “edema level (% EDEMA) after treatment” value [4] is reported as “about 30%”, the “brain % water content” value (CAR-induced brain edema) is reported as 83% and the LD50 (in vivo; im) is reported as over 100 mg/kg.
In the case of `CC(C)Cc1ccc(C(C)C(=O)OCCCCCCCCN2CCC=C(OC(=O)N(C)C)C2)cc1` (stereo not shown) [IBU-4H-PO], the “K′” value [5] is reported as 1.9 min⁻¹, the “ki (bimolecular rate constant)” value [5] is reported as 2.8 × 10^4 M^−1m^−1 and the “ks × 10^3” value [5] is reported as 20 minutes^−1. For the same compound, the “t½(ks)” value [5] was 0.575 h, the “K′” value [1] was 0.23 min⁻¹ and the “ki (bimolecular rate constant)” value [1] was 1.9 × 10^4 M^−1m^−1. The “ks × 10^3” value [1] was 6.9 minutes^−1, the “t½(ks)” value [1] was 1.67 h and the “K′” value [6] was 0.19 min⁻¹. For the same compound, the “ki (bimolecular rate constant)” value [6] was 1.2 × 10^5 M^−1m^−1, the “ks × 10^3” value [6] was 0.9 minutes^−1 and the “t½(ks)” value [6] was 13.2 h. The LD50 (in vivo; ip) was 54.2 mg/kg, the logD (physchem) was 2 and the Ki [7] was 66 µM. For the same compound, the Ki [2] was 12 µM and the Ki [8] was 1.6 µM.
For `COc1ccc2c(c1)c(CC(=O)O)c(C)n2C(=O)c1ccc(Cl)cc1` [INDO, indomethacin], the “edema level (% EDEMA) after treatment” value [4] was “about 30%” and the LD50 (in vivo; ip) was 12.4 mg/kg.
For `COC(=O)c1cccnc1` [MN, methyl nicotinate], the “mode of AChE inhibition” value [1] was “reversible inhibition of AChE” and the IC50 [2] was over 100 µM.
With `COc1ccc2cc([C@H](C)C(=O)O)ccc2c1` [NAPRO, naproxen] the inhibition at 1 µM [9] was 37% and the inhibition at 1 µM (COX II (sheep placenta)) was 85%.
For `CN(C)C(=O)Oc1ccc[n+](C)c1` [PYR, pyridostigmine], the ChE inhibition (whole blood ChE) was “less than 20%”, the “duration time of ChE inhibition” value (whole blood ChE) was 1 to 1.5 h and the “K′” value [5] was 0.31 min⁻¹. The “ki (bimolecular rate constant)” value [5] was 2.5 × 10^5 M^−1m^−1, the “ks × 10^3” value [5] was 10 minutes^−1 and the “t½(ks)” value [5] was 1.15 h. The “K′” value [1] was 0.40 min⁻¹, the “ki (bimolecular rate constant)” value [1] was 2.7 × 10^5 M^−1m^−1 and the “ks × 10^3” value [1] was 9.2 minutes^−1. The “t½(ks)” value [1] was 1.25 h, the “K′” value [6] was 0.08 min⁻¹ and the “ki (bimolecular rate constant)” value [6] was 7.3 × 10^4 M^−1m^−1. For the same compound, the “ks × 10^3” value [6] was 7.1 minutes^−1, the “t½(ks)” value [6] was 1.62 h and the LD50 (in vivo; im) was 2.1 mg/kg. It also gave an LD50 (in vivo; ip) of 5.1 mg/kg and a Ki [7] of 1.2 µM.
For `Nc1c2c(nc3ccccc13)CCCC2` [TACRINE], the “Therapeutic Index (TI = LD50/ED50)” value (mice [3]) was 3.5.
In the case of `CN1[C@@H]2CC[C@H]1C[C@@H](OC(=O)C(CO)c1ccccc1)C2` (stereo partly shown) [atropine], the “effect of pretreatment on IBU-PO-induced hypothermia” value (mice [10]) is reported as “partially reverses the hypothermia”.
For `CNC1(C)C2CCC(C2)C1(C)C` (stereo not shown) [mecamylamine], the “time of maximal IBU-PO-induced hypothermia after pretreatment” value (mice [10]) was 60 min.
With `CNC(=O)Oc1ccc2c(c1)[C@]1(C)CCN(C)[C@@H]1N2C` [physostigmine] the “Therapeutic Index (TI = LD50/ED50)” value (mice [3]) was 3.4.
